Usually Emax stands for the maximal effect, on the per cent scale that the assay sets.

Consider 22 compounds from patent US7863449B2, “Modulators of muscarinic receptors” (Vertex Pharmaceuticals Incorporated, priority 2004, dated 2011).

Test [1] deals with T1, M1 muscarinic receptor (Homo sapiens, UniProt P11229).
T1 construct: expressed in transfected cells; host or cells: CHO (M1-CHO)
T1 sequence (P11229 1-460): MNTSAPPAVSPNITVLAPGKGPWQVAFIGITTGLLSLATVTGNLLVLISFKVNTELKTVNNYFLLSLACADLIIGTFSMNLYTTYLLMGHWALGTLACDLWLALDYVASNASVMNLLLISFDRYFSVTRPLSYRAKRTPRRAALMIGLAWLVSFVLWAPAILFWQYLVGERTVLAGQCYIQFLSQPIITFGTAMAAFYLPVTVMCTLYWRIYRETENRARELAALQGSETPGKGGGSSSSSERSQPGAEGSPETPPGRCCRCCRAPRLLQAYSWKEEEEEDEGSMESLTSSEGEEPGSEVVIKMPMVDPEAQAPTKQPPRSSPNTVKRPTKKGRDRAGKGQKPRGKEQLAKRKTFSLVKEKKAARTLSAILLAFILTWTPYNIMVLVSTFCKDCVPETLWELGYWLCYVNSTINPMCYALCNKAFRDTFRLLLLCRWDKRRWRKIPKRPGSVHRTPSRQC
Nature of the test: Functional mobilization of intracellular calcium (FLIPR), M1-CHO cells. Format: cell-based. The settings on record: for Emax: 100% efficacy is the maximum response obtained using Carbachol as a control; for M1 Activity: M1-CHO cells, FLIPR calcium mobilization. The method, boiled down: (§1)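 CHO cells expressing M1 or M4, loaded with Fluo-3 AM or Calcium 3 dye with 1 mM probenecid, 0.5% DMSO final. Agonist mode: compound added directly; antagonist mode: 15 min pre-incubation (or co-application) before carbachol at EC80. Fluorescence recorded 60 s on FLIPR.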
In general terms: Calcium assays in cells follow changes in intracellular calcium, usually with a dye or a luminescent sensor.

Test [2] concerns the target T2, M4 muscarinic receptor (Homo sapiens, UniProt P08173).
T2 construct: expressed in transfected cells; host or cells: CHO (M4-CHO)
T2 sequence (P08173 1-479): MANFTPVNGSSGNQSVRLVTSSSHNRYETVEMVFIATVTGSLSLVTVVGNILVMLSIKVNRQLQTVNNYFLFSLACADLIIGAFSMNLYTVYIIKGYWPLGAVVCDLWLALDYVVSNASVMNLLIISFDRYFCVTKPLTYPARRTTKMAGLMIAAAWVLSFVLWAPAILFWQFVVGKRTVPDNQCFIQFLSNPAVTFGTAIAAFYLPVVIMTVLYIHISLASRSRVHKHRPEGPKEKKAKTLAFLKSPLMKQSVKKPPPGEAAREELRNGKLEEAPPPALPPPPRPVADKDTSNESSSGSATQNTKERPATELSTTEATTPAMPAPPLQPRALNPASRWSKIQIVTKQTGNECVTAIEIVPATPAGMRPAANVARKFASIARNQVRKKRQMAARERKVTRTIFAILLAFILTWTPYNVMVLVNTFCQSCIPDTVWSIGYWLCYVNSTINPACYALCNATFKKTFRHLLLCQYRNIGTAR
Nature of the test: Functional mobilization of intracellular calcium (FLIPR), M4-CHO cells. It is filed as cell-based. The settings on record: for Emax: 100% efficacy is the maximum response obtained using Carbachol as a control; for M4 Activity: M4-CHO cells, FLIPR calcium mobilization. A digest of the protocol:
as §1

Regarding `CCOC(=O)N1C2CCC1CC(N1CCC3(CC1)CN(C(=O)c1cnoc1C)Cc1ccccc13)C2` (stereo not shown) [compound 213], in test [1], the Emax lay within 25 to 100% and the “M1 Activity” value was “+++ (activity was measured to be less than 1.0 μM)”. Besides, in test [2], the Emax lay in the range of 25 to 100% and the “M4 Activity” value was “+++ (activity was measured to be less than 1.0 μM)”.
As for `CCOC(=O)N1CCC(CN2CCC3(CC2)CN(C(=O)c2ccno2)Cc2ccccc23)CC1` [compound 214], in test [1], the Emax is 25 to 100% and the “M1 Activity” value was “+++ (activity was measured to be less than 1.0 μM)”. Further, in test [2], the Emax lay within 25 to 100% and the “M4 Activity” value is “+++ (activity was measured to be less than 1.0 μM)”.
Regarding `CC(=O)N1Cc2ccccc2C2(CCN(C3CCOCC3)CC2)C1` [compound 215], in test [1], the maximal effect (Emax) was 25 to 100% and the “M1 Activity” value was “++ (activity was measured to be from 1.0 μM to 5.0 μM)”. For the same compound, in test [2], the maximal effect (Emax) was 25 to 100% and the “M4 Activity” value is listed as “+ (activity was measured to be greater than 5.0 μM)”.
As for `CCOC(=O)N1CC[C@@H](CN2CCC3(CC2)CN(C(C)=O)Cc2ccccc23)C1` [compound 216], in test [1], the Emax was 25 to 100% and the “M1 Activity” value is “+++ (activity was measured to be less than 1.0 μM)”. In test [2], the maximal response (Emax) fell in the range of 25 to 100% and the “M4 Activity” value was “+++ (activity was measured to be less than 1.0 μM)”.
As for `CC(=O)N1Cc2ccccc2C2(CCN(Cc3cc4ccccc4o3)CC2)C1` [compound 217], in test [1], the Emax was below 25% and the “M1 Activity” value is recorded as “+ (activity was measured to be greater than 5.0 μM)”. Further, in test [2], the Emax is below 25% and the “M4 Activity” value was “+ (activity was measured to be greater than 5.0 μM)”.
As for `CCOC(=O)N1C2CCC1CC(N1CCC3(CC1)CN(S(=O)(=O)Cc1ccccc1)Cc1ccccc13)C2` (stereo not shown) [compound 218], in test [1], the Emax is 25 to 100% and the “M1 Activity” value is “+++ (activity was measured to be less than 1.0 μM)”. For the same compound, in test [2], the Emax was 25 to 100% and the “M4 Activity” value was “+++ (activity was measured to be less than 1.0 μM)”.
Take `CCOC(=O)N1C2CCC1CC(N1CCC3(CC1)CN(C(=O)c1cc(C)n(C)n1)Cc1ccccc13)C2` (stereo not shown) [compound 219]: in test [1], the maximal response (Emax) was in the range of 25 to 100% and the “M1 Activity” value is recorded as “+++ (activity was measured to be less than 1.0 μM)”. For the same compound, in test [2], the Emax fell in the range of 25 to 100% and the “M4 Activity” value is “+++ (activity was measured to be less than 1.0 μM)”.
Turning to `CCOC(=O)N1C2CCC1CC(N1CCC3(CC1)CN(C(=O)c1snnc1C(C)C)Cc1ccccc13)C2` (stereo not shown) [compound 220], in test [1], the Emax fell in the range of 25 to 100% and the “M1 Activity” value was “+++ (activity was measured to be less than 1.0 μM)”. In test [2], the Emax was in the range of 25 to 100% and the “M4 Activity” value is recorded as “+++ (activity was measured to be less than 1.0 μM)”.
For the compound `CCOC(=O)N1CCC(N2CCC3(CC2)CN(C(=O)c2ccccc2)Cc2ccccc23)CC1` [compound 221], in test [1], the Emax lay in the range of 25 to 100% and the “M1 Activity” value is “+++ (activity was measured to be less than 1.0 μM)”. Besides, in test [2], the maximum response (Emax) was 25 to 100% and the “M4 Activity” value is recorded as “+++ (activity was measured to be less than 1.0 μM)”.
For `CS(=O)(=O)N1Cc2ccccc2C2(CCN(C3CC4CCC(C3)N4C(=O)O[C@@H]3CCOC3)CC2)C1` (stereo partly shown) [compound 222], in test [1], the Emax fell in the range of 25 to 100% and the “M1 Activity” value is on record as “+++ (activity was measured to be less than 1.0 μM)”. Besides, in test [2], the Emax was in the range of 25 to 100% and the “M4 Activity” value is on record as “+++ (activity was measured to be less than 1.0 μM)”.
Take `Cc1cc(C(=O)N2Cc3ccccc3C3(CCN(C4CC5CCC(C4)N5C(=O)OC4CCC4)CC3)C2)nn1C` (stereo not shown) [compound 223]: in test [1], the Emax was in the range of 25 to 100% and the “M1 Activity” value is “+++ (activity was measured to be less than 1.0 μM)”. Also, in test [2], the Emax fell in the range of 25 to 100% and the “M4 Activity” value is on record as “+++ (activity was measured to be less than 1.0 μM)”.
Take `CCOC(=O)N1C2CCC1CC(N1CCC3(CC1)CN(C(=O)C1CC1)Cc1ccccc13)C2.Cl` (stereo not shown) [compound 224, Ethyl 3-(2-(cyclopropanecarbonyl)-2,3-dihydro-1H-spiro[isoquinoline-4,4′-piperidine]-1′-yl)-8-azabicyclo-[3.2.1]octane-8-carboxylate hydrochloride]: in test [1], the Emax lay within 25 to 100% and the “M1 Activity” value is recorded as “+++ (activity was measured to be less than 1.0 μM)”. In test [2], the Emax lay within 25 to 100% and the “M4 Activity” value is given as “+++ (activity was measured to be less than 1.0 μM)”.
With `CCOC(=O)N1CCC(N2CCC3(CC2)CN(C(=O)c2cnon2)Cc2ccccc23)CC1` [compound 225], in test [1], the Emax is 25 to 100% and the “M1 Activity” value is listed as “+++ (activity was measured to be less than 1.0 μM)”. In test [2], the maximum response (Emax) lay in the range of 25 to 100% and the “M4 Activity” value is “+++ (activity was measured to be less than 1.0 μM)”.
Turning to `O=C1c2ccccc2C2(CCN([C@@H]3C[C@@H]4CC[C@@H]3C4)CC2)N1Cc1ccccc1` [compound 227], in test [1], the maximal response (Emax) was below 25% and the “M1 Activity” value is “+ (activity was measured to be greater than 5.0 μM)”. Moreover, in test [2], the Emax is below 25% and the “M4 Activity” value is listed as “+ (activity was measured to be greater than 5.0 μM)”.
`CCOC(=O)N1CCC(N2CCC3(CC2)CN(C(=O)CC(C)C)Cc2ccccc23)CC1` [compound 229]: in test [1], the maximal response (Emax) lay in the range of 25 to 100% and the “M1 Activity” value is “+++ (activity was measured to be less than 1.0 μM)”. In addition, in test [2], the Emax is 25 to 100% and the “M4 Activity” value is listed as “+++ (activity was measured to be less than 1.0 μM)”.
Take `CCOC(=O)N1CCC(N2CCC3(CC2)OC(=O)c2cc(Cl)ccc23)CC1` [compound 230]: in test [1], the maximum response (Emax) was in the range of 25 to 100% and the “M1 Activity” value is recorded as “+++ (activity was measured to be less than 1.0 μM)”. Also, in test [2], the Emax was 25 to 100% and the “M4 Activity” value is “++ (activity was measured to be from 1.0 μM to 5.0 μM)”.
On to `CCOC(=O)N1C2CCC1CC(N1CCC3(CC1)CN(C(=O)Nc1c(C)noc1C)Cc1ccccc13)C2.Cl` (stereo not shown) [compound 233, Ethyl 3-(2-(3,5-dimethylisoxazol-4-ylcarbamoyl)-2,3-dihydro-1H -spiro[isoquinoline-4,4′-piperidine]-1′-yl)-8-azabicyclo[3.2.1]octane-8-carboxylate hydrochloride], for which, in test [1], the maximum response (Emax) is 25 to 100% and the “M1 Activity” value is listed as “+++ (activity was measured to be less than 1.0 μM)”. In test [2], the Emax was 25 to 100% and the “M4 Activity” value was “+++ (activity was measured to be less than 1.0 μM)”.
Regarding `CCOC(=O)N1CCC(N2CCC3(CC2)CN(C(=O)OC)Cc2ccccc23)CC1` [compound 240], in test [1], the maximal response (Emax) lay in the range of 25 to 100% and the “M1 Activity” value is listed as “+++ (activity was measured to be less than 1.0 μM)”. Besides, in test [2], the maximal effect (Emax) fell in the range of 25 to 100% and the “M4 Activity” value is on record as “+++ (activity was measured to be less than 1.0 μM)”.
Turning to `CC(C)OC(=O)N1C2CCC1CC(N1CCC3(CC1)CN(S(=O)(=O)N(C)C)Cc1ccccc13)C2` (stereo not shown) [compound 241], in test [1], the Emax lay within 25 to 100% and the “M1 Activity” value is “+++ (activity was measured to be less than 1.0 μM)”. In test [2], the Emax lay within 25 to 100% and the “M4 Activity” value is reported as “+++ (activity was measured to be less than 1.0 μM)”.
With `CCOC(=O)N1CCC(N2CCC3(CC2)CN(C(=O)N(CC)CC)Cc2ccccc23)CC1` [compound 242], in test [1], the Emax was in the range of 25 to 100% and the “M1 Activity” value is on record as “+++ (activity was measured to be less than 1.0 μM)”. For the same compound, in test [2], the Emax was below 25% and the “M4 Activity” value is recorded as “+ (activity was measured to be greater than 5.0 μM)”.
As to `CC(=O)N1Cc2ccccc2C2(CCN(CC3CCN(C(=O)O[C@H]4CCOC4)CC3)CC2)C1` [compound 243], in test [1], the maximal effect (Emax) was below 25% and the “M1 Activity” value was “+ (activity was measured to be greater than 5.0 μM)”. Also, in test [2], the Emax was below 25% and the “M4 Activity” value is “+ (activity was measured to be greater than 5.0 μM)”.
For the compound `CCOC(=O)N1C2CCC1CC(N1CCC3(CC1)CN(C(=O)C1(C)CC1)Cc1ccccc13)C2` (stereo not shown) [compound 244], in test [1], the Emax lay within 25 to 100% and the “M1 Activity” value is listed as “+++ (activity was measured to be less than 1.0 μM)”. Also, in test [2], the Emax lay in the range of 25 to 100% and the “M4 Activity” value is recorded as “+++ (activity was measured to be less than 1.0 μM)”.
